The source of these data is ChEMBL document CHEMBL1158768, “Isolation and structure elucidation of the new fungal metabolite (-)-xylariamide A” (J Nat Prod, 2005).

Holding throughout (format): organism-based
Holding throughout (details): in vivo

Data set [1] deals with Artemia salina. In words: Toxicity in Artemia salina.
For data set [2], the system named is Artemia salina. In words: Toxicity in Artemia salina at 20 ug/mL.
Data set [3] has as its system Artemia salina. Nature of the data set: Toxicity in Artemia salina at 200 ug/mL.

As for `COC(=O)/C=C/C(=O)N[C@@H](Cc1ccc(O)c(Cl)c1)C(=O)O` [(+)-XYLARIAMIDE A], the Activity entry in the data set on Artemia salina [1] is listed as “Non-toxic”.

`COC(=O)/C=C/C(=O)N[C@H](Cc1ccc(O)c(Cl)c1)C(=O)O` [(-)-XYLARIAMIDE A]: the Activity in the data set on Artemia salina [2] is on record as 0%; in the data set with Artemia salina [3] it was 71%.
